Data: patent US20240299376A1, “METHOD OF TREATING A CONDITION USING A […] EFFECTIVE DOSE OF 1-(1-OXO-1,2-DIHYDROISOQUINOLIN-5-YL)-5-(TRIFLUOROMETHYL)-N-(2-(TRIFLUOROMETHYL)PYRIDIN-4-YL)-1H-PYRAZOLE-4-CARBOXAMIDE” (Janssen Pharmaceutica NV, priority 2021, published 2024)
Read-outs that look alike come from different tables or passages of the source.

Legend:
[1] = test system: MALT1 substrate BCL10; assay: BCL10 Mesoscale assay of OCI-LY3 tumor samples after a single dose; assay type: in vivo, NSG mice; conditions: OCI-LY3 tumors
Description: MALT1 protease activity results in the cleavage of negative regulators of the classical NF-κB pathway such as A20, CYLD, RelB, and BCL10. […] The assay measures un-cleaved BCL10 which is increased upon MALT1 inhibition. OCI-LY3 or OCI-LY10 tumors were crushed before lysis in Mammalian Protein Extraction Reagent buffer for 30 minutes at 4° C. Centrifugation of the lysate was done and supernatant kept for analysis in the MSD assay. MSD plates (small spot, goat anti-rabbit coated, MSD L45RA-1) were blocked for 1 hour with 3% Bovine serum Albumin (in Tris-buffered saline, 0.1% Tween 20) and labeled with BCL10 antibody (Abcam #33905) to capture the uncleaved BCL10. 25 μg of tumor lysates were transferred to the BCL 10-labeled MSD plate and incubated for 24 hours at 4° C. followed by 2-hour incubation with BCL10 antibody detecting cleaved/uncleaved BCL10 (ab93022) and 2-hour antibody detection. Plates were read on a SECTOR imager.
As a more direct PD readout, OCI-LY3 tumor samples were analyzed by a BCL 10 Mesoscale assay, looking for cleavage inhibition of the MALT1 substrate BCL10. The assay measures uncleaved BCL10 in tumor.
Tumor uncleaved BCL10 levels are graphed as the mean+SD.
For PD, when tumors reached 550-750 mm^3 animals were assigned randomly into the treatment groups and treated as presented in Table 5. Dose volumes were adjusted to individual body weights at 10 mL/kg. […]

[2] = test system: Rec1 (Ibrutinib sensitive MCL); assay: Anti-proliferative activity, DLBCL cell line panel; assay type: cell-based; conditions: Homo sapiens, Rec1, 192 h; antiproliferation after 8 days of treatment
[3] = test system: HLY-1 (Myd88/CARD11/homoz A20 mut); assay: Anti-proliferative activity, DLBCL cell line panel; assay type: cell-based; conditions: 192 h; antiproliferation after 8 days of treatment
[4] = Single IV dose plasma PK; assay type: in vivo, rat; conditions: for C0 / Vd / AUC(0-inf) / clearance / half-life: male, plasma, S-D; for C0 / Vd: Rat; for Vd / AUC(0-inf) / clearance / half-life: iv, 1 mg/kg; for Vd: read-out: Vdss
Description: (§1) Single intravenous (IV) dose PK was conducted in mice (two strains), rats, monkeys, and dogs at a dose of 1 mg/kg in 70% PEG400 (PEG400/water 70:30) by bolus injection. The time course for plasma sample was optimized to fully characterize the disposition profile in each species. PK analysis was by non-compartmental method.

[5] = Single IV dose plasma PK; assay type: in vivo, dog
Description: as §1

[6] = 14-day oral toxicity study toxicokinetics in dogs (beagles); assay type: in vivo, dog; conditions: for Cmax: female, beagle, dog, in vivo, po, 250 mg/kg/day
Description: Repeated-dose PK (toxicokinetics) were obtained as part of the repeated oral dose toleration toxicity studies in rats and dogs.
However, there was no increase in the exposure parameters at 250 mg/kg/day from the first day of dosing until Day 7 when the dose group was terminated.

[7] = Pharmacokinetic modeling and simulations to predict the human dose; conditions: corresponds to mouse trough at 10 mg/kg BID after accounting for protein binding difference mice/human
Description: According to the tested scenario, the minimum predicted efficacious dose is approximately 110 mg given once daily.
The pharmacokinetic modeling was used based on available non-clinical pharmacokinetic data and allometric scaling. In addition, modeling using GastroPlus and SimCYP was also used to guide PK parameter prediction.

[8] = test system: B-cell lymphoma lines; assay: Anti-proliferative activity, panel of 10 B-cell lymphoma lines (general cytotoxicity); assay type: cell-based
Description: Four ABC-DLBCL cell lines with activating mutations in the canonical NFκB pathway were evaluated (OCI-LY3 (CARD11, MYD88 & A20 mutations), TMD8, HBL1, and OCI-LY10 (CD79B & MYD88 mutations)), which are generally sensitive to NF-κB pathway inhibition. None of the GCB-DLBCL cell lines harbor mutations in the NF-κB pathway. The GCB-DLBCL cell lines served as a negative control to exclude compounds with general cytotoxic effects.
At concentrations ≥20 μM general cytotoxicity was observed.

[9] = test system: phosphorylation of IκBα in OCI-LY3 cells; conditions: unstimulated conditions
Description: The phospho-IκBα (pIκBα) signal was quantified as percent of DMSO control and normalized against β-tubulin.

[10] = Sprague-Dawley (S-D), rat, 3M, 1 mg/kg IV in 70% PEG400 (-AAA), mean
[11] = Sprague-Dawley (S-D), rat, 6M, 1 mg/kg IV, dosed as the -ZAF salt
[12] = male, plasma, Dog, beagle, 3M, 1 mg/kg IV in 70% PEG400, mean
[13] = Day 1, 10 to 50 mg/kg/day (5-fold increase in dose)
[14] = Day 1, 10 to 250 mg/kg/day (25-fold increase in dose)

O=C(Nc1ccnc(C(F)(F)F)c1)c1cnn(-c2cccc3c(=O)[nH]ccc23)c1C(F)(F)F [Compound A, 1-(1-oxo-1,2-dihydroisoquinolin-5-yl)-5-(trifluoromethyl)-N-[2-(trifluoromethyl)pyridin-4-yl]-1H-pyrazole-4-carboxamide]
dose giving maximum levels of uncleaved BCL10 [1]: ≥ 10 mg/kg | fraction of uncleaved BCL10 in tumor [1]: dose-dependently increased the fraction of uncleaved BCL10 | IC50 [2]: 1.17 µM | IC50 [3]: 8.8 µM | C0 ([4]; Sprague-Dawley (S-D), 6M, 1 mg/kg IV, dosed as the -ZAF salt, mean): 1450 ng/mL | Vd [4, 10]: 0.86 L/kg | Vd [4, 11]: 0.622 L/kg | AUC(0-inf) [4, 10]: 7950 ng·h/mL | clearance [4, 10]: 2.15 mL/min/kg | half-life [4, 10]: 10 h | AUC(0-inf) [4, 11]: 9780 ng·h/mL | clearance [4, 11]: 1.7 mL/min/kg | half-life [4, 11]: 5.33 h | C0 ([4]; Sprague-Dawley, 3M, 1 mg/kg IV in 70% PEG400 (-AAA), mean): 2200 ng/mL | CL as fraction of liver blood flow (LBF) ([4]; rat, LBF 55.2 mL/min/kg): 1.5% | CL as fraction of liver blood flow (LBF) ([5]; dog, LBF 30.9 mL/min/kg): 3.0% | AUC(0-inf) [5, 12]: 23100 ng·h/mL | C0 [5, 12]: 2070 ng/mL | clearance [5, 12]: 0.772 mL/min/kg | half-life [5, 12]: 16.9 h | Vd ([5]; male, plasma, Dog, beagle, 3M, 1 mg/kg IV in 70% PEG400, mean, read-out: Vdss): 1.01 L/kg | increase in AUC0-24h with dose [6, 13]: 5.8 fold | increase in Cmax with dose [6, 13]: 5.5 fold | increase in AUC0-24h with dose [6, 14]: 23 fold | increase in Cmax with dose [6, 14]: 20 fold | relation of single doses to maximum tolerated dose (MTD) ([6]; escalated single oral doses vs MTD upon 14 days of dosing in dogs): greater than the maximum tolerated dose (MTD) upon 14 days of dosing in dogs | toxicity findings ([6]; female beagles, 10, 50, and 250 mg/kg/day PO for 14 days): moribundity and mortality resulted in early termination of the 50 and 250 mg/kg dose groups | Cmax [6]: 263,000 ng/mL | Cmax ([6]; Cmax): 290000 ng/mL | Ctrough at steady state targeted in humans [7]: 4640 ng/mL | concentrations at which general cytotoxicity was observed [8]: ≥ 20 µM | inhibition of phospho-IκBα [9]: did not inhibit phospho-IκBα
